Measured values from ChEMBL document CHEMBL1201862, “PubChem BioAssay data set” (2004).
The source made the active and inactive calls.

What was measured:
[1] = biological target: T1, Apoptotic protease-activating factor 1 (Homo sapiens, UniProt O14727); test: SAR analysis of small molecule Activators of Apaf-1 in a Fluorescent assay.; type: functional; details: read-out: EC50_Mean;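 also: caspase-3 cleavage of fluorogenic Rh110 DEVD substrate downstream of apoptosome activation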
T1 sequence (O14727 whole entry): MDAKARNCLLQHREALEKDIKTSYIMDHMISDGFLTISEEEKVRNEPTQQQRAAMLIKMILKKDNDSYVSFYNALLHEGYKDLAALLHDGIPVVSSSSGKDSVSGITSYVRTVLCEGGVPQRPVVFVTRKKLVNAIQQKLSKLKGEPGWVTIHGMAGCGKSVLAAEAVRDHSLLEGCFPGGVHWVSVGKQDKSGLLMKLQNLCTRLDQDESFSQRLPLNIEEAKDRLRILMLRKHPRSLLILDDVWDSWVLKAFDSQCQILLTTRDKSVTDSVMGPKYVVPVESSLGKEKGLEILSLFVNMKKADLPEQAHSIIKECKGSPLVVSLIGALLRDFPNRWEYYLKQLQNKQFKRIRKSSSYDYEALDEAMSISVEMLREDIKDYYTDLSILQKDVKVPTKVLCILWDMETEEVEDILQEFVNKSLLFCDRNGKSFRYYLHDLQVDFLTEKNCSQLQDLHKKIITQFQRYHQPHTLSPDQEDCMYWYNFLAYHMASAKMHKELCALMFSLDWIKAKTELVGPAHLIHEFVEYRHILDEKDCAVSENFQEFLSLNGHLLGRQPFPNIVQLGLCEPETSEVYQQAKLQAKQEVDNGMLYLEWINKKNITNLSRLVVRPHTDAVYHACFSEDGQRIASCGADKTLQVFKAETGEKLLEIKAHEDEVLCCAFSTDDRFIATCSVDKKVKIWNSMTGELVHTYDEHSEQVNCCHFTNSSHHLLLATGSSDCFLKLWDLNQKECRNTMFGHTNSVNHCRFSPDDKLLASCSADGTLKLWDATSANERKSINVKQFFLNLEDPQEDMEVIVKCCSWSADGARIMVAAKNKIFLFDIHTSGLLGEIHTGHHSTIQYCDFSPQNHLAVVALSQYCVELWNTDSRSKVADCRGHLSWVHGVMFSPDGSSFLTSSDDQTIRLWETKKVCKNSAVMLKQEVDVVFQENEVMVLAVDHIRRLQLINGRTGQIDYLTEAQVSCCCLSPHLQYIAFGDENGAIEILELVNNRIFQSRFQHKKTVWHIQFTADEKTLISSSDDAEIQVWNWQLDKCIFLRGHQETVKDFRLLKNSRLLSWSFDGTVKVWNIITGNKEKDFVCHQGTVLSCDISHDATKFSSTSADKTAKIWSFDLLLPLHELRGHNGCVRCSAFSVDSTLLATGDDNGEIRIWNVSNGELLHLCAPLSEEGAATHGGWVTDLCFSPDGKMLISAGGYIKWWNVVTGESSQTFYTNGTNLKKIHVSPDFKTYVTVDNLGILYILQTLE

[2] = cells; type: functional, cell-based
[3] = biological target: T2, Trace amine-associated receptor 1 (Homo sapiens, UniProt Q96RJ0); test: Counterscreen for agonists of the human trace amine associated receptor 1 (hTAAR1): Fluorescence-based cell-based high throughput dose response assay to identify hTAAR1 agonist that also desensitize TAAR1 receptor response.; type: functional
T2 sequence (Q96RJ0 whole entry): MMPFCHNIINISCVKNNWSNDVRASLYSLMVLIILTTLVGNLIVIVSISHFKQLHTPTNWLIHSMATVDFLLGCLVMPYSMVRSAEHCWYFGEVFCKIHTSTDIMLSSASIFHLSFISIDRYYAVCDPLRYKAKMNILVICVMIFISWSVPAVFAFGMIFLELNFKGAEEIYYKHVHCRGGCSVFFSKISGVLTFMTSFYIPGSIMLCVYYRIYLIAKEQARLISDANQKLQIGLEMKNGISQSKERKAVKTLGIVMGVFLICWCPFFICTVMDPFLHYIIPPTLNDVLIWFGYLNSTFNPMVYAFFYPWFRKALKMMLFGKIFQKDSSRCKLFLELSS

[4] = biological target: Dual specificity protein phosphatase 3 (Homo sapiens, UniProt P51452); test: VHR phosphatase inhibition, dose response, selectivity assay for STEP inhibitor project, biochemical (AID 602374); type: functional; details: read-out: IC50_Mean
Dual specificity protein phosphatase 3, sequence (P51452 whole entry): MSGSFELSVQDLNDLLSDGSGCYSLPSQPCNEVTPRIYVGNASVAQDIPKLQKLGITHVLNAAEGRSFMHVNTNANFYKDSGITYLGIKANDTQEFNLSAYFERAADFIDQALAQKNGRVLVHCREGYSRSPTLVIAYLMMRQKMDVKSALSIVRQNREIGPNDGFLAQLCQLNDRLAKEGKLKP

[5] = biological target: T2, Trace amine-associated receptor 1; test: Fluorescence-based cell-based high throughput dose response assay to identify agonists of the human trace amine associated receptor 1 (TAAR1).; type: functional
[6] = biological target: Tyrosine-protein phosphatase non-receptor type 11 (Homo sapiens, UniProt Q06124); test: SHP2 phosphatase inhibition, dose response, selectivity assay for STEP inhibitor project, biochemical (AID 602367); type: functional; details: read-out: IC50_Mean
Tyrosine-protein phosphatase non-receptor type 11, sequence (Q06124 whole entry): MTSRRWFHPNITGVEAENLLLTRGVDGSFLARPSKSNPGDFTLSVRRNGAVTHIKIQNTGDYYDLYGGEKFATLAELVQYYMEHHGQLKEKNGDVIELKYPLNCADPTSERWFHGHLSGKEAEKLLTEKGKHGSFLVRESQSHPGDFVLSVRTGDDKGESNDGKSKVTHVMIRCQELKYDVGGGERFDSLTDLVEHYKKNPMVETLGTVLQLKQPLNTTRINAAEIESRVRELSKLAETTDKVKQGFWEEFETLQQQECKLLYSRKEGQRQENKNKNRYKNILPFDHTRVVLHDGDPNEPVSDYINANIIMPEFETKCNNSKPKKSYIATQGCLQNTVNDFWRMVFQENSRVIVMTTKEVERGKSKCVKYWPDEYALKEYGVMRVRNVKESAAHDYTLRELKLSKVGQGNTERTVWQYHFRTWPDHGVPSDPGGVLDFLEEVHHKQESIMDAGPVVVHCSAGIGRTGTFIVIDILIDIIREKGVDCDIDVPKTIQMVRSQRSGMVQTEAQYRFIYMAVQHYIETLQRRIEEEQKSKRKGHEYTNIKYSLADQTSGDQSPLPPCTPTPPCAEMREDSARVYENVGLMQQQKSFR

[7] = cells; type: functional, cell-based; remark: listed apart in the source
[8] = biological target: Tyrosine-protein phosphatase non-receptor type 5 (Homo sapiens, UniProt P54829); test: STEP phosphatase inhibitors, confirmation, biochemical, fluorescence intensity, uHTS hits (AID 602372); type: functional; details: read-out: IC50_Mean
Tyrosine-protein phosphatase non-receptor type 5, sequence (P54829 whole entry): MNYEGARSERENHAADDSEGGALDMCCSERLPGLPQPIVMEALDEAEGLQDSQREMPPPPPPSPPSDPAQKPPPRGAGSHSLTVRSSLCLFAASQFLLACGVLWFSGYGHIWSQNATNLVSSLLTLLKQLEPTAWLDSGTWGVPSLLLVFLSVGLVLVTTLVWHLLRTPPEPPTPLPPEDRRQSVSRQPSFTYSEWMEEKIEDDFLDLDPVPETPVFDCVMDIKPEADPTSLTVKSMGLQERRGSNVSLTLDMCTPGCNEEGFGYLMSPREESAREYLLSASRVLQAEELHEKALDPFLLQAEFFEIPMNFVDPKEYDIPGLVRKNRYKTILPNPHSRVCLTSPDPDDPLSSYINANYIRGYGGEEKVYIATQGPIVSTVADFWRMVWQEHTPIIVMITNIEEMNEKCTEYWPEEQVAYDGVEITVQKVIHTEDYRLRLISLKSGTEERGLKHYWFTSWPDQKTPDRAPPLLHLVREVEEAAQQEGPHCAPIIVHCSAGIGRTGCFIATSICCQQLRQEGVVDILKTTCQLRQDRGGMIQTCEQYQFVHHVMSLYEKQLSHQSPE

[9] = LMP1-driven NF-kB reporter inhibition, dose response, cell-based, luciferase reporter, luminescence, dry powder, set 2 (AID 624376); type: functional
[10] = biological target: T3, Beta-2 adrenergic receptor (Homo sapiens, UniProt P07550); test: Dose response for HTS for Beta-2AR agonists via FAP method from Powderset3.; type: functional
T3 sequence (P07550 whole entry): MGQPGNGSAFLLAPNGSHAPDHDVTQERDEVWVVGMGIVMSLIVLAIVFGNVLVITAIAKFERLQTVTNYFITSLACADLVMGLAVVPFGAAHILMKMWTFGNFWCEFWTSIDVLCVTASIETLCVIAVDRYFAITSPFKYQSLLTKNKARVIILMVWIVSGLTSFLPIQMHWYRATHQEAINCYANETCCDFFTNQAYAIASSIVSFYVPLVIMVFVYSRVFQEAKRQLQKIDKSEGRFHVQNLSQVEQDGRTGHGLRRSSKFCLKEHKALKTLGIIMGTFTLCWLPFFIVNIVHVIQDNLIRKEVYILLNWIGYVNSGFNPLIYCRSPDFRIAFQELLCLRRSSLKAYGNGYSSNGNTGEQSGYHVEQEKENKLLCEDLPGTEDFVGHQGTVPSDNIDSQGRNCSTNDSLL

[11] = biological target: T3, Beta-2 adrenergic receptor; test: beta2AR agonists driving receptor internalization, dose response, cell-based, FAP fluorogen, flow cytometry, cherry pick 1 (AID 588763); type: functional
[12] = biological target: Adenosylmethionine-8-amino-7-oxononanoate aminotransferase (Mycobacterium tuberculosis, UniProt P9WQ81); test: Mycobacterium tuberculosis BioA enzyme inhibitor Measured in Biochemical System Using Plate Reader - 2163-02_Inhibitor_Dose_CherryPick_Activity.; type: functional, Mycobacterium tuberculosis UT205
Adenosylmethionine-8-amino-7-oxononanoate aminotransferase, sequence (P9WQ81 whole entry): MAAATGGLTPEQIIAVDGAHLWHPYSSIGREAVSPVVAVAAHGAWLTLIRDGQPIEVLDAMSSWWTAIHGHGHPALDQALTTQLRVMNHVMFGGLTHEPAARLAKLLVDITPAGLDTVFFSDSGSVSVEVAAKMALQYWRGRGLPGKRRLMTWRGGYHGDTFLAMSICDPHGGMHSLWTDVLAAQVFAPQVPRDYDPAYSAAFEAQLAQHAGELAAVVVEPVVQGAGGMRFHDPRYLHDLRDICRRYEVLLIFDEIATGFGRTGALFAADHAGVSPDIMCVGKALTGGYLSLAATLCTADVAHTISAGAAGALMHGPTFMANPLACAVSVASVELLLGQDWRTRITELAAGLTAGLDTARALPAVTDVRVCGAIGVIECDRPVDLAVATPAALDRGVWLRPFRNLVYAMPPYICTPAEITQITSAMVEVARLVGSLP

Which EC50 [1] does the source give for `COC(=O)[C@@H]1COC(c2ccc(F)cc2F)=N1` here?
Its EC50 is > 100 µM (inactive).

For `NS(=O)(=O)c1ccc(N/C(S)=N\CCc2ccccc2)cc1`, which IC50 [2] is on record?
The IC50 was > 29.9 µM (inactive).

And the IC50 [3]?
The IC50 was 7.06 µM (active).

And the IC50 [4]?
Its IC50 is 3.17 µM (active).

And the EC50 [5]?
The EC50 was 2.56 µM (active).

And the IC50 [6]?
The IC50 was 5.84 µM (active).

What about the EC50 [7] of the same compound?
Its EC50 is > 29.9 µM (inactive).

And the IC50 [8]?
The IC50 was > 80 µM (inactive).

With `COc1ccc(S(=O)(=O)N(C)C[C@H]2Oc3ncc(/C=C/c4ccccc4)cc3C(=O)N([C@H](C)CO)C[C@@H]2C)cc1` as the compound, how does the AbsAC35 [9] read?
The AbsAC35 was 45.64 µM.

Which EC50 [10] does the source give for `CC(=O)Nc1ccc(S(=O)(=O)N2CCC(Oc3ccc(-n4cnnn4)cc3)CC2)cc1` here?
Its EC50 is 0.0366 µM (active).

What about the EC50 [11] of the same compound?
The EC50 was 0.126 µM (active).

With `N#C[C@H]1[C@@H](c2ccccc2)[C@@H](CO)N1C(=O)Nc1cccc(F)c1` as the compound, how does the AC50 [12] read?
The AC50 was 1.76 µM (active).
